Experimental data as given in patent US20220354811A1, “METHODS AND COMPOSITIONS FOR MODULATING MACROPHAGES POLARIZATION” (INSERM (INSTITUT NATIONAL DE LA SANTÉ ET DE LA RECHERCHE …, priority 2019, published 2022).

Columns and labels:
[1] = tested on: caspases 8, 3 and 7; assay: Western blot of caspase cleavage in monocytes; type: cell-based, human; details: for cleavage of effector caspases-3 and -7 at their specific differentiation cleavage site: monocytes treated 2 days with CSF-1; for cleavage of the zymogens of caspases 8, 3 and 7 in their active 17-20 kDa fragments: untreated monocytes without CSF-1, 24 h
Experimental: Lysates were centrifuged at 20,000 g (15 min, 4° C.) and supernatants were supplemented with concentrated loading buffer (4× Laemmli buffer). Fifty micrograms of proteins were separated and transferred following standard protocols before analysis with the chemiluminescence detection kit (GE Healthcare, RPN2105).

[2] = biological target: T1, caspase 3 (Homo sapiens, UniProt P42574); assay: Caspase 3 activity in untreated monocytes (Ac-DEVD-AMC substrate); type: cell-based; design: endogenous in cells; host or cells: primary human peripheral blood monocytes (CD14-selected, healthy donors); details: all the concentrations tested, 1 day
T1 sequence (P42574 29-175 limits assumed): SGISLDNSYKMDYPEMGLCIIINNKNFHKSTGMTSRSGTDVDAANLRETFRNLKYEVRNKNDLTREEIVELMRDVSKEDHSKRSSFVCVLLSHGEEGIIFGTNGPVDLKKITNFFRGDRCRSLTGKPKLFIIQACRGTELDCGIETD
T1 sequence (P42574 176-277 limits assumed): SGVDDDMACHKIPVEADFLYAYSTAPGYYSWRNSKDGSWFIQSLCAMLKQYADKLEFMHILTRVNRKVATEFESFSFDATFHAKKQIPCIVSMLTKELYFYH
Experimental: FIG. 3. Both Q-VD-Oph and Emricasan hamper in the same way apoptosis in untreated monocytes. […] Measures of caspase-3 (DEVD-AMC) and caspase-8 (IETD-AMC) activities. The results are expressed as A.U./mg/min and represent the mean the mean±SD of 3 independent experiments performed in triplicate.
After stimulation, cells were lysed for 30 min at 4° C. in lysis buffer (50 mM HEPES pH 8, 150 mM NaCl, 20 mM EDTA, 1 mM PMSF, 10 μg/mL leupeptin, 10 μg/mL aprotinin and 0.2% Triton X-100) and lysates were cleared at 16 000 g for 15 min at 4° C. Each assay (in triplicate) was performed with 10 μg of protein prepared from control or stimulated cells. Briefly, cellular extracts were then incubated in a 96-well plate with 0.2 mM of DEVD-AMC (Caspase-3) or IETD-AMC (Caspase-8) as substrates for various times at 37° C. Caspase activity was measured either following emission at 460 nm (excitation at 390 nm) in the presence or not of 10 μM of DEVD-CHO or IETD-CHO. Enzyme activities were expressed in arbitrary units (A.U.) per min and per mg of proteins. The same protocol was used with 0.25 units of active recombinant caspase-8 (Enzo, ALX-201-062) or -3 (Enzo, ALX-201-059) in each triplicate.

[3] = biological target: T1, caspase 3; assay: Caspase-3 activity in cellulo in CSF-1-differentiating monocytes (flow cytometry, DEVD); type: cell-based; design: endogenous in cells; host or cells: primary human peripheral blood monocytes (CD14-selected, healthy donors); details: identical conditions: Emricasan single dose, Q-VD-OPh 100 μM 2 times
Source text: FIG. 5. […] Caspases activities from 3 different healthy donors was examined by flow cytometry analysis. The results are expressed as percentage of IETD or DEVD positive cells and represent the mean±SD of 3 independent experiments performed in duplicate. n.s. denotes not statistically significant according to a paired student t test. *P<0.05, **P<0.01, ***P<0.001 according to a paired student t test (versus d2). Asterisks indicate cleavage fragments. Each panel is representative of at least 3 independent experiments.
To analyze the macrophagic differentiation of monocytes, the cells were washed with ice-cold phosphate buffered saline (PBS, Life Technologies, 14190169), incubated at 4° C. for 10 min in PBS/bovine serum albumin (BSA 0.5%, Dutscher, 871002) with anti-CD16, anti-CD71 and anti-CD163 or isotype controls (Miltenyi and BD Biosciences, catalog numbers were 130-113-396, 130-097-628 and 551374). […] Fluorescence was measured with a MACSQuant® Analyzer (Miltenyi, Paris, France). […] Fluorescence was measured with a MACSQuant® Analyzer (Miltenyi, Paris, France). […] Fluorescence, that indicate the internalization of particles, was measured with a MACSQuant® Analyzers (Miltenyi, France). Trypan blue solution was used to quench the fluorescence from particles that were not internalized. […]
After 2 days, caspase-8 activity was assessed by flow cytometry using Ac-IETD-FITC as substrate (data not shown).

SMILES	cleavage of effector caspases-3 and -7 at their specific differentiation cleavage site [1]	cleavage of the zymogens of caspases 8, 3 and 7 in their active 17-20 kDa fragments [1]	caspase 3 activity in untreated monocytes [2]	effect on caspase-3 activity in cellulo [3]
C[C@H](NC(=O)C(=O)Nc1ccccc1C(C)(C)C)C(=O)N[C@@H](CC(=O)O)C(=O)COc1c(F)c(F)cc(F)c1F [Emricasan, (S)-3-((S)-2-(2-((2-(tert-Butyl)phenyl)amino)-2-oxoacetamido)propanamido)-4-oxo-5-(2,3,5,6-tetrafluorophenoxy)pentanoic acid]	impaired	abrogated	efficiently inhibited	potent inhibition
CC(C)[C@H](NC(=O)c1ccc2ccccc2n1)C(=O)N[C@@H](CC(=O)O)C(=O)COc1c(F)cccc1F [Q-VD-OPh]	impaired	abrogated	efficiently inhibited	potent inhibition
